Results reported in ChEMBL document CHEMBL1148772, “Inhibition of Mycobacterium tuberculosis, Mycobacterium bovis, and Mycobacterium avium by novel dideoxy nucleosides” (J Med Chem, 2007).
Converted amounts (≈) assume the structure as drawn.

Experiments:
[1] = test system: Mycobacterium tuberculosis; assay: Antimycobacterial activity against Mycobacterium tuberculosis H37Ra at 10 uM by microplate alamar blue assay; format: functional
Mycobacterium avium [2] = assay: Antimycobacterial activity against Mycobacterium avium ATCC 25291 at 100 uM by microplate alamar blue assay; format: functional
[3] = Cytotoxicity against Vero cells by MTT assay; format: cell-based; settings: African green monkey
[4] = test system: Mycobacterium tuberculosis; assay: Antimycobacterial activity against Mycobacterium tuberculosis H37Ra by microplate alamar blue assay; format: functional
Mycobacterium avium [5] = assay: Antimycobacterial activity against Mycobacterium avium ATCC 25291 at 10 uM by microplate alamar blue assay; format: functional
[6] = Cytotoxicity against human foreskin fibroblast cells by MTT assay; format: cell-based
Mycobacterium avium [7] = assay: Antimycobacterial activity against Mycobacterium avium ATCC 25291 by microplate alamar blue assay; format: functional
Bacillus subtilis = assay: Antibacterial activity against Bacillus subtilis ATCC 6633; format: functional
[8] = test system: Mycobacterium tuberculosis; assay: Antimycobacterial activity against Mycobacterium tuberculosis H37Ra at 100 uM by microplate alamar blue assay; format: functional
[9] = test system: Mycobacterium tuberculosis; assay: Antimycobacterial activity against Mycobacterium tuberculosis H37Ra at 50 uM by microplate alamar blue assay; format: functional
[10] = test system: Mycobacterium tuberculosis; assay: Antimycobacterial activity against Mycobacterium tuberculosis H37Ra at 1 uM by microplate alamar blue assay; format: functional
Mycobacterium avium [11] = assay: Antimycobacterial activity against Mycobacterium avium ATCC 25291 at 50 uM by microplate alamar blue assay; format: functional
Streptococcus pyogenes = assay: Antibacterial activity against Streptococcus pyogenes ATCC 19615; format: functional
Streptococcus pneumoniae = assay: Antibacterial activity against Streptococcus pneumoniae ATCC 49619; format: functional
Mycobacterium avium [12] = assay: Antimycobacterial activity against Mycobacterium avium ATCC 25291 at 2 uM by microplate alamar blue assay; format: functional

Row | Compound | inhibition at 10 µM [1] [%] | inhibition at 100 µM (Mycobacterium avium [2]) [%] | MIC90 [4] [µg/mL] | inhibition at 100 µM [8] [%] | inhibition at 50 µM [9] [%] | also measured
1 | Nc1nc(=O)n([C@H]2CC[C@@H](CO)O2)cc1Br | 50 | 0 |  |  |  | 
2 | CCCCCCCCCC#Cc1cn([C@H]2CC[C@@H](CO)O2)c(=O)[nH]c1=O | 100 | 100 | 1 (≈ 2.76 µM) | 100 | 100 | CC50 [3]: > 100 µg/mL; inhibition at 10 µM (Mycobacterium avium [5]): 50%; CC50 [6]: > 100 µg/mL; MIC90 (Mycobacterium avium [7]): 10 µg/mL (≈ 27.6 µM); MIC (Bacillus subtilis): 100 µg/mL (≈ 276 µM); inhibition at 1 µM [10]: 80%; inhibition at 50 µM (Mycobacterium avium [11]): 100%
3 | CCCCCCCCCCCC#Cc1cn([C@H]2CC[C@@H](CO)O2)c(=O)[nH]c1=O | 50 | 100 | 10 (≈ 25.6 µM) | 100 | 100 | CC50 [3]: > 100 µg/mL; inhibition at 10 µM (Mycobacterium avium [5]): 80%; CC50 [6]: > 100 µg/mL; MIC90 (Mycobacterium avium [7]): 10 µg/mL (≈ 25.6 µM); inhibition at 1 µM [10]: 50%; inhibition at 50 µM (Mycobacterium avium [11]): 100%
4 | O=c1[nH]c(=O)n([C@H]2CC[C@@H](CO)O2)cc1C#Cc1ccccc1 |  | 25 |  | 25 | 25 | inhibition at 10 µM (Mycobacterium avium [5]): 25%; inhibition at 50 µM (Mycobacterium avium [11]): 25%
5 | O=c1[nH]c(=O)n([C@H]2CC[C@@H](CO)O2)cc1Br |  | 0 |  | 0 |  | 
6 | CCCC#Cc1cn([C@H]2CC[C@@H](CO)O2)c(=O)[nH]c1=O |  | 0 |  | 50 |  | 
7 | Nc1ncnc2c1ncn2[C@H]1CC[C@@H](CO)O1 |  | 0 |  | 0 |  | 
8 | CC(=O)OC[C@@H]1CC[C@H](n2ccc(=O)[nH]c2=O)O1 |  | 0 |  | 0 |  | 
9 | O=c1[nH]c(=O)n([C@H]2CC[C@@H](CO)O2)cc1Cl |  | 0 |  | 0 |  | 
10 | CCCc1ccc(C#Cc2cn([C@H]3C[C@H](F)[C@@H](CO)O3)c(=O)[nH]c2=O)cc1 | 50 | 25 | 50 (≈ 134 µM) | 100 | 100 | 
11 | CCCCCCCCCCCCC#Cc1cn(C2CC(F)C(CO)O2)c(=O)[nH]c1=O (stereo not drawn) | 100 | 90 | 1 (≈ 2.37 µM) | 100 | 100 | CC50 [3]: > 100 µg/mL; CC50 [6]: > 100 µg/mL; MIC90 (Mycobacterium avium [7]): 100 µg/mL (≈ 237 µM); inhibition at 1 µM [10]: 80%
12 | CCSc1nc(N)nc2c1ncn2[C@H]1CC[C@@H](CO)O1 | 35 | 25 | 10 (≈ 33.9 µM) | 100 | 100 | inhibition at 50 µM (Mycobacterium avium [11]): 25%
13 | CC(=O)OC[C@@H]1CC[C@H](n2cc(Cl)c(=S)[nH]c2=O)O1 |  | 0 | 50 (≈ 164 µM) | 100 | 60 | 
14 | CCCCCC#Cc1cn([C@H]2C[C@H](F)[C@@H](CO)O2)c(=O)[nH]c1=O |  | 0 |  | 50 |  | 
15 | CCCCCCCCC#Cc1cn([C@H]2C[C@H](F)[C@@H](CO)O2)c(=O)[nH]c1=O | 25 | 50 | 10 (≈ 27.3 µM) | 100 | 100 | CC50 [3]: > 100 µg/mL; CC50 [6]: > 100 µg/mL
16 | CCCCCCCCCCC#Cc1cn([C@H]2C[C@H](F)[C@@H](CO)O2)c(=O)[nH]c1=O | 50 | 90 | 10 (≈ 25.3 µM) | 100 | 100 | CC50 [3]: > 100 µg/mL; CC50 [6]: > 100 µg/mL; MIC90 (Mycobacterium avium [7]): 100 µg/mL (≈ 253 µM); inhibition at 50 µM (Mycobacterium avium [11]): 40%
17 | N#Cc1cn(C2CCC(CO)O2)c2ncnc(N)c12 (stereo not drawn) |  | 0 |  | 50 | 40 | 

Row | Compound | inhibition at 10 µM [1] [%] | inhibition at 100 µM (Mycobacterium avium [2]) [%] | MIC90 [4] [µg/mL] | inhibition at 100 µM [8] [%] | inhibition at 50 µM [9] [%] | also measured
18 | CCCCCCCCCCCC#Cc1cn([C@H]2C[C@H](F)[C@@H](CO)O2)c(=O)[nH]c1=O | 60 | 25 | 10 (≈ 24.5 µM) | 100 | 100 | CC50 [3]: > 100 µg/mL; CC50 [6]: > 100 µg/mL
19 | CCCCCCCCC#Cc1cn([C@H]2CC[C@@H](CO)O2)c(=O)[nH]c1=O | 100 | 90 | 1 (≈ 2.87 µM) | 100 | 100 | CC50 [3]: > 100 µg/mL; inhibition at 10 µM (Mycobacterium avium [5]): 25%; CC50 [6]: > 100 µg/mL; MIC90 (Mycobacterium avium [7]): 100 µg/mL (≈ 287 µM); MIC (Bacillus subtilis): 100 µg/mL (≈ 287 µM); MIC (Streptococcus pyogenes): 100 µg/mL (≈ 287 µM); inhibition at 1 µM [10]: 50%; inhibition at 50 µM (Mycobacterium avium [11]): 25%; MIC (Streptococcus pneumoniae): 100 µg/mL (≈ 287 µM)
20 | Nc1nc(=O)n([C@H]2CC[C@@H](CO)O2)cc1I |  | 0 |  | 0 |  | 
21 | CC(=O)OC[C@@H]1CC[C@H](n2cc(Cl)c(=O)[nH]c2=O)O1 |  | 0 |  | 0 |  | 
22 | Cc1cn([C@H]2CC[C@@H](CO)O2)c(=O)nc1N | 50 | 0 |  | 50 | 50 | 
23 | NC(=O)c1cn([C@H]2CC[C@@H](CO)O2)c2ncnc(N)c12 |  | 0 |  | 0 |  | 
24 | Nc1nc(F)c2ccn([C@H]3CC[C@@H](CO)O3)c2n1 | 25 | 100 |  | 50 | 40 | inhibition at 10 µM (Mycobacterium avium [5]): 35%; MIC90 (Mycobacterium avium [7]): 10 µg/mL (≈ 39.6 µM); inhibition at 50 µM (Mycobacterium avium [11]): 100%
25 | O=c1[nH]c(=S)c(Cl)cn1[C@H]1CC[C@@H](CO)O1 |  | 0 | 50 (≈ 190 µM) | 100 | 50 | 
26 | CCCCCCCCCCCCC#Cc1cn([C@H]2CC[C@@H](CO)O2)c(=O)[nH]c1=O | 50 | 100 | 10 (≈ 24.7 µM) | 100 | 100 | CC50 [3]: > 100 µg/mL; CC50 [6]: > 100 µg/mL; MIC90 (Mycobacterium avium [7]): 50 µg/mL (≈ 124 µM); inhibition at 1 µM [10]: 25%; inhibition at 50 µM (Mycobacterium avium [11]): 50%
27 | Nc1nc(N)c2ncn([C@H]3CC[C@@H](CO)O3)c2n1 |  | 0 |  | 25 |  | 
28 | Nc1nc(O)c2ncn([C@H]3CC[C@@H](CO)O3)c2n1 |  | 0 |  | 0 |  | 
29 | CC[C@H]1OC(=O)[C@H](C)[C@@H](O[C@H]2C[C@@](C)(OC)[C@@H](O)[C@H](C)O2)[C@H](C)[C@@H](O[C@@H]2O[C@H](C)C[C@H](N(C)C)[C@H]2O)[C@](C)(OC)C[C@@H](C)C(=O)[C@H](C)[C@@H](O)[C@]1(C)O [CLARITHROMYCIN] |  |  |  |  |  | MIC90 (Mycobacterium avium [7]): 2 µg/mL (≈ 2.67 µM); inhibition at 2 µM (Mycobacterium avium [12]): 95%
30 | Nc1ccn([C@@H]2CS[C@H](CO)O2)c(=O)n1 [LAMIVUDINE] |  | 0 |  | 0 |  | 
31 | COc1nc(N)nc2c1ncn2[C@H]1CC[C@@H](CO)O1 [METACAVIR] |  | 20 |  | 0 |  | inhibition at 50 µM (Mycobacterium avium [11]): 20%
32 | CO[C@H]1/C=C/O[C@@]2(C)Oc3c(C)c(O)c4c(O)c(c(/C=N/N5CCN(C)CC5)c(O)c4c3C2=O)NC(=O)/C(C)=C\C=C\[C@H](C)[C@H](O)[C@@H](C)[C@@H](O)[C@@H](C)[C@H](OC(C)=O)[C@@H]1C [RIFAMPIN] |  |  | 0.5 (≈ 0.608 µM) |  |  | MIC90 (Mycobacterium avium [7]): 2 µg/mL (≈ 2.43 µM); inhibition at 2 µM (Mycobacterium avium [12]): 90%
33 | Nc1ccn([C@H]2CC[C@@H](CO)O2)c(=O)n1 [ZALCITABINE] |  | 0 |  | 0 |  | 
